From patent publication US20110076272A1, “THERAPEUTIC METHODS AND COMPOSITIONS” (priority 2009, published 2011)

Legend:
[1] = system: MCF7 cells; assay: Induction of EMT-like phenotype by LOXL2-containing conditioned media (rhodamine-phalloidin staining); type: cell-based; details: MDA-MB231 or Hs-578t conditioned media; BAPN up to 2 mM
Procedure: Cells were seeded at 80% confluency, in an 8-chambered slide, 24 hours prior to the day of staining. After 24 hours, media was aspirated and the chambers were washed with PBS. Cells were then fixed with 4% Parafomaldehyde (PFA) for 20 minutes at room temperature and then permeabilized with 0.5% Saponin (JT Baker, Phillipsburg, N.J.) for 5 minutes at room temperature. Cells were then stained for 15 minutes at room temperature with a 1:100 dilution of rhodamine phalloidin (Invitrogen, Carlsbad, Calif.). Slides were mounted with Vectashield (Vector Laboratories, Burlingame, Calif.).
MCF7 or SW620 cells were seeded at 50,000 cells per well of an 8-chambered culture slide in HGDMEM (high-glucose Dulbecco's modified Eagle's medium containing 4.5 g/l glucose)+10% FBS, 2 mM L-glutamine, 24 hours prior to being exposed to conditioned medium (CM). 500 uls of fresh conditioned medium from MDA MB 231 cells was added to the chambers containing MCF7 cells. The cells were incubated with the CM for 48-96 hours. Conditioned medium from MCF7 or SW620 cells was used as a negative control. After 48-96 hours incubation with CM, the cells were stained with rhodamine-phalloidin as described above.

[2] = system: purified recombinant human LOXL2; assay: Amplex Red assay of LOXL2 enzymatic activity; type: biochemical
Procedure: A mouse anti-human LOXL2 antibody (AB0023) was obtained by immunization with full-length LOXL2 protein and purified by SEC-HPLC (Tosoh TSKGEL G3000SWXL 7.8×300). Analytical size exclusion chromatography was used to assess antibody stability and purity. Purified AB0023 was run on SDS-PAGE Coomassie (Invitrogen BT 4-12% Gels) reducing and non-reducing gels to assess purity. Potency was examined by ELISA to determine Kd, and effect on LOXL2 enzymatic activity was determined using an Amplex Red Assay (Molecular Probes/Invitrogen, Carlsbad, Calif.). Antibody concentration was measured by absorbance at 280 nm using an Extinction Coefficient Abs 0.1% of 1.4. Identity was assayed by isoelectric focusing (Invitrogen pH 3-10 IEF Gels). For safety analysis, endotoxin levels were measured at a sensitivity range of 0.01-1 EU/ml (Charles River EndoSafe PTS).

[3] = system: MDA-MB-435 established primary tumors; assay: MDA-MB-435 established primary tumor xenograft model; type: in vivo, mouse; details: independent study; AB0023 5 mg/kg twice per week, BAPN 100 mg/kg daily
[4] = system: MDA-MB-435 established primary tumors; assay: as above; type: in vivo, mouse; design: reduction in activated TAFs assessed by aSMA signal / reduction in VEGF signal versus vehicle-treated tumors / reduction in SDF-1/CXCL12 signal / reduction in LOXL2 signal: concentration or dose not given beside the values
Procedure: To provide growing tumor tissue stock for subsequent orthotopic implantation, five- to six-week-old nude mice (NCr nu/nu) were injected subcutaneously with 2×10^6 MDA-MB-435-GFP cells (Anticancer, Inc., San Diego, Calif.) on the right flank. For this purpose, cultures of MDA-MB-435-GFP cells were harvested and dissociated by trypsinization, washed three times with cold serum-containing medium, and then kept on ice until injection. Cells were injected into the subcutaneous space of the flank of the animal in a total volume of 0.1 ml, within 30 min of harvesting. The nude mice were sacrificed to harvest tumor tissue 4 to 6 weeks after tumor cell injection for surgical orthotopic implantation (SOI) of tumor fragments.
Tumor pieces (˜1 mm^3), extracted from subcutaneously-growing GFP-expressing breast tumors, were implanted by surgical orthotopic implantation (SOI) on the breast of female nude mice (NCr nu/nu). Treatments with AB0023 (anti-LOXL2 monoclonal antibody), M64 (anti-LOX monoclonal antibody) and vehicle (all via intraperitoneal injection) and with Taxotere (by intravenous injection) were initiated when the average primary tumor volume reached 75 mm^3. Mice were administered the antibodies at a dose of 30 mg/kg twice a week for 28 days and Taxotere, at 10 mg/kg, was administered once a week for 3 weeks.
Body weight and tumor size were recorded weekly. At the conclusion of the study, mice were sacrificed by cervical dislocation after being anesthetized with carbon dioxide. Primary breast tumors were imaged, harvested, cut in half symmetrically and snap-frozen for histological and immunohistochemical analyses.
The solutions used for the immunohistochemistry (IHC) protocols were obtained from Biocare Medical (Concord, Calif.) unless otherwise stated. All procedures were performed at room temperature. Slides were fixed with 4% PFA for 10 minutes and were subsequently treated with Peroxidazed-1 (Biocare Medical, Concord, Calif.) for 5 minutes. Then, the slides were background blocked with SNIPER (Biocare Medical, Concord, Calif.) for 10 minutes. Primary antibody (2-5 ug/ml final concentration) was diluted in Da Vinci Green Universal Diluent and applied to slides for 30 minutes. Slides were then rinsed in PBS-Tween-20. The Mach2 polymer kit was used for antigen detection by adding rabbit probe for 30 minutes. DAB chromagen was added to the slides for 3-5 minutes, then slides were rinsed once with deionized water. The slides were then counter-stained with hematoxylin, followed by dehydration with graded alcohol. The slides were mounted with entellan mounting medium (Electron Microscopy Sciences, Hatfield, Pa.).

[5] = target: T1, lysyl oxidase (LOX) (UniProt P28300 169-417, limits assumed); assay: Western blot probed with AB0023 [Cont. 2) panel m]
T1 construct: Member of 'other lysyl oxidase-type enzymes'
T1 sequence (looked up): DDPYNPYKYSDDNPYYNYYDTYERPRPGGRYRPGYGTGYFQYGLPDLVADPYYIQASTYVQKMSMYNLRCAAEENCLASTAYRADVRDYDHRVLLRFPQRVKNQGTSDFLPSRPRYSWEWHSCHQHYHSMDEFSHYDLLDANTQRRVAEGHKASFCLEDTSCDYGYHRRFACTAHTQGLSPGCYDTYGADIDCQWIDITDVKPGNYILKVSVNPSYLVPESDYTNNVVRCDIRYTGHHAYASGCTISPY

[6] = target: T2, lysyl oxidase-like 4 (LOXL4) (UniProt Q96JB6 25-756, limits assumed); assay: Western blot probed with AB0023 [Cont. 2) panel m]
T2 construct: Member of 'other lysyl oxidase-type enzymes'
T2 sequence (looked up): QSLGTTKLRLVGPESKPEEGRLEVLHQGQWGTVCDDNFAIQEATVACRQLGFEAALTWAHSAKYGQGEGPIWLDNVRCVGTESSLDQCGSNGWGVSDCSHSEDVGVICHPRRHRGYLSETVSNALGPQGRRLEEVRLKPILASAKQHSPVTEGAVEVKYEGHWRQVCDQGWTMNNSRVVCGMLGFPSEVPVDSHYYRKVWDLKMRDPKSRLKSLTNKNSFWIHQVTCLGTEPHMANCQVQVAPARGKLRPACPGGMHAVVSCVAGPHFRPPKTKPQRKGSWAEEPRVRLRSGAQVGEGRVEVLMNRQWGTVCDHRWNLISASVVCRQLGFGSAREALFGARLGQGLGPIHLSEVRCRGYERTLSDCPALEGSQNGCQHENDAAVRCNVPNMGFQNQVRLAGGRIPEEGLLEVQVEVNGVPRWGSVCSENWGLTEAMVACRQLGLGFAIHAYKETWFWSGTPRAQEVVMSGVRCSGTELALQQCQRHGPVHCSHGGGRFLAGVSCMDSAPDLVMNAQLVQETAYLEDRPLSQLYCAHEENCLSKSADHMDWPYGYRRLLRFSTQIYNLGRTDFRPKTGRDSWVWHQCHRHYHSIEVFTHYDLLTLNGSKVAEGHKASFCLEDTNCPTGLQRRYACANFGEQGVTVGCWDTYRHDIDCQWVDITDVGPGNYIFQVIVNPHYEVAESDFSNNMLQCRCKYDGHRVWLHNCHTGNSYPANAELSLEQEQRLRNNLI

[7] = target: T3, lysyl oxidase-like 3 (LOXL3) (UniProt P58215 26-753, limits assumed); assay: Western blot probed with AB0023 [Cont. 2) panel m]
T3 construct: Member of 'other lysyl oxidase-type enzymes'; also called LOR-2
T3 sequence (looked up): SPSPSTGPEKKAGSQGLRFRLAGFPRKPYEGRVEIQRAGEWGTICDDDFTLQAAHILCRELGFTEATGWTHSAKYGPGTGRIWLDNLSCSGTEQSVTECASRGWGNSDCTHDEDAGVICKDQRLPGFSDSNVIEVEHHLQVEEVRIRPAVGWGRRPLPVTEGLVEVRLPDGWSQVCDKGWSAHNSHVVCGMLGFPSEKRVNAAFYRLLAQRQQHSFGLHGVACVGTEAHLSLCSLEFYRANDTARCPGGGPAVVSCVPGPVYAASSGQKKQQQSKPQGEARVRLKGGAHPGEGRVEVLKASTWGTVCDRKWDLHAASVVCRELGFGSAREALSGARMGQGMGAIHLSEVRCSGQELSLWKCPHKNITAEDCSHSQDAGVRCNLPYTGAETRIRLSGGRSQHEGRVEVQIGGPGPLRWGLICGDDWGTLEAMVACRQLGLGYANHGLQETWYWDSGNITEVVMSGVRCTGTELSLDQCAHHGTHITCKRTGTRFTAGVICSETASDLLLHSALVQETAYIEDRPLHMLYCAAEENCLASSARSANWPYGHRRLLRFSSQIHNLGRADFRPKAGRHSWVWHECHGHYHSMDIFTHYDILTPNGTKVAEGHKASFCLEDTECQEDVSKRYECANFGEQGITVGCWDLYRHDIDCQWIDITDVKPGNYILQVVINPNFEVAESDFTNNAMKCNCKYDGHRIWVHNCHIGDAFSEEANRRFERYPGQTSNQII

[8] = target: T4, human lysyl oxidase-like 2 (LOXL2) (human, UniProt Q9Y4K0 26-774); assay: cell-based or functional assay
T4 sequence (looked up): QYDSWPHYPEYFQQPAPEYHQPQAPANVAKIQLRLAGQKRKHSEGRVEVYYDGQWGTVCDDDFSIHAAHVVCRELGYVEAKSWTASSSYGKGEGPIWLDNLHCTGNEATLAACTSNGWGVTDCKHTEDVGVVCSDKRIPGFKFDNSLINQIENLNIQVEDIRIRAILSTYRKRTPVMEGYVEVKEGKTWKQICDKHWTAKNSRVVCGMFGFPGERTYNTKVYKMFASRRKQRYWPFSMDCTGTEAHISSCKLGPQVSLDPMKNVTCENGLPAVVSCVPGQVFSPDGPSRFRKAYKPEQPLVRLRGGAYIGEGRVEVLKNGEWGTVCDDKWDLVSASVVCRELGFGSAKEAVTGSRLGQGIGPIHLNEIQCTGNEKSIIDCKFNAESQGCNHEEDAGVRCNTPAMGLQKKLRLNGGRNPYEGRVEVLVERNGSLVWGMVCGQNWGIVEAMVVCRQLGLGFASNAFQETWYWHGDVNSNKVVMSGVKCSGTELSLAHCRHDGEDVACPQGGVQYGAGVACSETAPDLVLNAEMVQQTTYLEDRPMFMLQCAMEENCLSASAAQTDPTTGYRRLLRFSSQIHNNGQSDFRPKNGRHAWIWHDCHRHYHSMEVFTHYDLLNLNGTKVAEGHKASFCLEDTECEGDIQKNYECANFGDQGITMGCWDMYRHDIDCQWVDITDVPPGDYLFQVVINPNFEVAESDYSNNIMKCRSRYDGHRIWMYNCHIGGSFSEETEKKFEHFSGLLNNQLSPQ

[9] = Pilot repeat-dose studies in cynomolgus monkeys; type: in vivo; details: repeat dosing at 100 mg/kg

For `N#CCCN` [BAPN, beta-aminoproprionitrile, reference compound], the “remodeling of the actin cytoskeleton induced by LOXL2-containing conditioned media” value [1] was “not inhibited”, the “mode of inhibition of LOXL2” value [2] was “competitive inhibitor” and the “inhibition of LOXL2 enzymatic activity” value ([2]; in vitro) was “inhibited”. The “IC50 for inhibition of LOXL2 (in words)” value ([2]; in vitro, FIG. 8 panel D) was “low nanomolar”, the “reduction in tumor vasculature, CD31 signal” value [3] was “no reduction” and the “reduction in tumor volume after 46 days” value [3] was 19%.

In the case of `CC(=O)O[C@@]12CO[C@@H]1C[C@H](O)[C@@]1(C)C(=O)[C@H](O)C3=C(C)[C@@H](OC(=O)[C@H](O)[C@@H](NC(=O)OC(C)(C)C)c4ccccc4)C[C@@](O)([C@@H](OC(=O)c4ccccc4)[C@H]21)C3(C)C` [Taxotere, reference compound], the “levels of Beclin-1 (autophagy) in tumor cells” value ([4]; mouse, in vivo) is reported as “increased”, the “reduction in Sirius red staining (crosslinked collagen, desmoplasia)” value ([4]; tumors harvested at day 39) is reported as “No significant differences” and the “reduction in activated TAFs assessed by aSMA signal” value ([4]; tumors harvested at day 39) is reported as “No significant differences”. The “reduction in tumor vasculature, CD31 signal” value ([4]; tumors harvested at day 39) was 43%.

B1: anti-LOXL2 monoclonal antibody AB0023 (antibody, V domains shown)
VH: QVQLQQSGAELVRPGTSVKVSCKASGYAFTYYLIEWVKQRPGQGLEWIGVINPGSGGTNYNEKFKGKATLTADKSSSTAYMQLSSLTSDDSAVYFCARNWMNFDYWGQGTTLTVSS
VL: DIVMTQAAPSVSVTPGESVSISCRSSKSLLHSNGNTYLYWFLQRPGQSPQFLIYRMSNLASGVPDRFSGSGSGTAFTLRISRVEAEDVGVYYCMQHLEYPYTFGGGTKLEIK
notes: Mouse monoclonal antibody from a hybridoma, raised against full-length LOXL2 and purified from ascites; also called mouse anti-human LOXL2 antibody; LOXL2-specific monoclonal antibody
B1: no binding [5]; no binding [6]; no binding [7]. For the same molecule, the “IC50, HUVEC tube formation assay, FIG. 4 Panel I (mean total tubule length)” value [8] was 33.2 nM and the “apparent IC50 for inhibition of purified LOXL2 enzymatic activity” value [8] was about 30 nM.

B2: AB0024: humanized anti-LOXL2 variant of AB0023; heavy chain variable region SEQ ID NO:3, light chain SEQ ID NO:4 (antibody, listed as Mus musculus, V domains shown)
VH: QVQLVQSGAEVKKPGASVKVSCKASGYAFTYYLIEWVRQAPGQGLEWIGVINPGSGGTNYNEKFKGRATITADKSTSTAYMELSSLRSEDTAVYFCARNWMNFDYWGQGTTVTVSS
VL: DIVMTQTPLSLSVTPGQPASISCRSSKSLLHSNGNTYLYWFLQKPGQSPQFLIYRMSNLASGVPDRFSGSGSGTDFTLKISRVEAEDVGVYYCMQHLEYPYTFGGGTKVEIK
modifications: Humanized heavy chain; Humanized light chain
With B2 the “mode of inhibition of LOXL2” value [2] was “non-competitive allosteric inhibitors” and the tolerability [9] was “well tolerated”.
